The results in this text go back to ChEMBL document CHEMBL1145087 (J Med Chem, 2003).

The target of assay [1] is T1, Glucocorticoid receptor (Homo sapiens, UniProt P04150).
T1 sequence (P04150 whole entry): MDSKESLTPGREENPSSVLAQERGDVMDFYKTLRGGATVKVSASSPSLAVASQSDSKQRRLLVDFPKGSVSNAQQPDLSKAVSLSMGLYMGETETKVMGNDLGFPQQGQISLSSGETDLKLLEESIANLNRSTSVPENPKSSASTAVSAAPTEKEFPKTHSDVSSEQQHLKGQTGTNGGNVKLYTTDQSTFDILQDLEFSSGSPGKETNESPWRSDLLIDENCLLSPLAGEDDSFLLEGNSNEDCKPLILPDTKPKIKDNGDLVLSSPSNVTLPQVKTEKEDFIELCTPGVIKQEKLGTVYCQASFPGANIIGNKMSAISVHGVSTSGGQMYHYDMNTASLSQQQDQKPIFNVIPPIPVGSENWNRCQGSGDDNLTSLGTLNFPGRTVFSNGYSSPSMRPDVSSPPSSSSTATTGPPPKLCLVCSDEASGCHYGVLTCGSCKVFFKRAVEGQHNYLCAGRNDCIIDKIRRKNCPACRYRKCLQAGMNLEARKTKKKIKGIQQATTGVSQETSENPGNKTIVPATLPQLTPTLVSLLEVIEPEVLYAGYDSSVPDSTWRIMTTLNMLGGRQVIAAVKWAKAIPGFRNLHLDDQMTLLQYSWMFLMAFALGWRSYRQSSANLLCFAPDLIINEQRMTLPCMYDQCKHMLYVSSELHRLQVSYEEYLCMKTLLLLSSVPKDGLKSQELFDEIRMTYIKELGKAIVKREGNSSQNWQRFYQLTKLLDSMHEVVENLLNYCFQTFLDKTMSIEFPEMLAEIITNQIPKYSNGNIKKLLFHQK
Briefly: Inhibition of Dexamethasone binding to human glucocorticoid receptor expressed in baculovirus […] cells.

In assay [2] the target is T2, Progesterone receptor (Homo sapiens, UniProt P06401).
T2 sequence (P06401 whole entry): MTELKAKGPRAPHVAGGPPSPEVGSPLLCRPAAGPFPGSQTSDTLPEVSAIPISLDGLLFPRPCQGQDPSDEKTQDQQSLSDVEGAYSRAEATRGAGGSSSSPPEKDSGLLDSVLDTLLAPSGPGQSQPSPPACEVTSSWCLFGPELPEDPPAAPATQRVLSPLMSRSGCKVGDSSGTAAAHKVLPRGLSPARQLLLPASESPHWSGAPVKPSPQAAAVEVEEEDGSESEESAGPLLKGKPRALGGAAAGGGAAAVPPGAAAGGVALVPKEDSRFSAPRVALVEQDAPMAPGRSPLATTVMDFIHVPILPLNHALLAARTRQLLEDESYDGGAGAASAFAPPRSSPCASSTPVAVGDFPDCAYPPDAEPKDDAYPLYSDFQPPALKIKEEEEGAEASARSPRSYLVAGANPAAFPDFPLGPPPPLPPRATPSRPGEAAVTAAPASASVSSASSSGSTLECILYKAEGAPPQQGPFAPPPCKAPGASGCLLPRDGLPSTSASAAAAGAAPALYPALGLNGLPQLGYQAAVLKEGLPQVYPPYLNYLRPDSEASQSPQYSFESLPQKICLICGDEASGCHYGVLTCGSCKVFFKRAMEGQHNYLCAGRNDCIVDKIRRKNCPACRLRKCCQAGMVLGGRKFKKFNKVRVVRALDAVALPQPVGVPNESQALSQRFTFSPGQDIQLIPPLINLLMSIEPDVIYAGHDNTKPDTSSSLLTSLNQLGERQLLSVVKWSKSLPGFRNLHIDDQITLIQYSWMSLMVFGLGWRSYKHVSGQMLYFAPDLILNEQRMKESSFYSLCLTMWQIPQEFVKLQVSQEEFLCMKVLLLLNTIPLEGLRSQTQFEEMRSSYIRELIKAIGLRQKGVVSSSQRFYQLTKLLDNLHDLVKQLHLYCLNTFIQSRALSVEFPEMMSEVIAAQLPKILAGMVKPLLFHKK
Nature of the assay: Binding affinity towards human progesterone receptor A isoform using progesterone as radioligand.

Assay [3] concerns the target T3, Androgen receptor (Homo sapiens, UniProt P10275).
T3 sequence (P10275 whole entry): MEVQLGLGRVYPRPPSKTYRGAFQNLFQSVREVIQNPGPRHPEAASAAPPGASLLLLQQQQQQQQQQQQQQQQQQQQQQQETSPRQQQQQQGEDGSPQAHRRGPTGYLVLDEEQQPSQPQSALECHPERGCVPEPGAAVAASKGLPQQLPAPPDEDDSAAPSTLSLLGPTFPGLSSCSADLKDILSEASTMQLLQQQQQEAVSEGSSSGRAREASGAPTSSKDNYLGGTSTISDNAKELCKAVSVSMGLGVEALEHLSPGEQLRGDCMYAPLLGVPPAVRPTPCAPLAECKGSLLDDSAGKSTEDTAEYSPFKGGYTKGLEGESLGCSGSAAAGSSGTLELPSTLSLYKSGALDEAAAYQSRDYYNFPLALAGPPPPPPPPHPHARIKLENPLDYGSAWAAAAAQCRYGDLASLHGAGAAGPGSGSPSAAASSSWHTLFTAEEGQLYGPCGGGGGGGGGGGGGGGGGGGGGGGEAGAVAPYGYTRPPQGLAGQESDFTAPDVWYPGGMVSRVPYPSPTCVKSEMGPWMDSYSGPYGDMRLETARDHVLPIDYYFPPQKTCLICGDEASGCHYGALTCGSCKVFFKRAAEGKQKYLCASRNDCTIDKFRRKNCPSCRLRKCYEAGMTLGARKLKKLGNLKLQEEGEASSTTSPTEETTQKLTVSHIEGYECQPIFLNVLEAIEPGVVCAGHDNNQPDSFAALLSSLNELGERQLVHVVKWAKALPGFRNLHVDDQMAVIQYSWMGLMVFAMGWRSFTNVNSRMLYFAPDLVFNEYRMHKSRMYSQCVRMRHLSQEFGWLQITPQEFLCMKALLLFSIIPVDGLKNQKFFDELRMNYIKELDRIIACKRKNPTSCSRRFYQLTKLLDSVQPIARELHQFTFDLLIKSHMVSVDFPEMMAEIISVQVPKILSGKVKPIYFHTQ
Nature of the assay: biochemical.
Description: Inhibition of DHT binding to human androgen receptor expressed in baculovirus SF-12 cells

The species named for assay [4] is Homo sapiens. Briefly: Relative potency for human mineralocorticoid and progesterone receptors.
Assay [5] addresses T4, Progesterone receptor (Homo sapiens) (UniProt P06401).
T4 sequence (whole entry): T2 sequence (P06401 whole entry)
Nature of the assay: Percent agonistic effect towards human progesterone receptor in CV-1 cells. The class given is functional, cell-based.

The species named for assay [6] is Homo sapiens. Nature of the assay: Relative potency for human estrogen and progesterone receptors.
Assay [7] concerns the target T2, Progesterone receptor. Nature of the assay: Agonistic activity against human progesterone receptor in CV-1 cells. The class given is functional, cell-based.
Assay [8] deals with T3, Androgen receptor.
Description: Inhibition of human androgen receptor at 10e-12 to 10e-5 M

In general, Ki refers to a dissociation constant, usually derived from enzyme kinetics or from competition with a known ligand. One may read the EC50 as the midpoint of the concentration-response curve. A higher EC50 goes with a less potent agent. Usually IC50 stands for the point on the concentration scale where inhibition reaches its midpoint.

Each structure is given as a SMILES string.

As for `CCc1ccccc1/C=C1\Oc2ccc(F)cc2-c2ccc3c(c21)C(C)=CC(C)(C)N3`, the Ki in assay [1] is 270 nM; in assay [2], 2.3 nM; in assay [3] it was 1590 nM. Moreover, the Ratio was 167 in assay [4] and greater than 1000 in assay [6]. Moreover, in assay [5], the Efficacy came out at 161%. Moreover, the midpoint of the response in assay [7], the EC50, lay at 2 nM.

Regarding `CC1=CC(C)(C)Nc2ccc3c(c21)/C(=C/c1ccccc1)Oc1c(F)cccc1-3`, the Ki in assay [1] is 321 nM; in assay [2], 0.61 nM; in assay [3] it was 1460 nM. Half-maximal inhibition in assay [8] (IC50) required 900 nM. For the same molecule, the Ratio in assay [4] and in assay [6] was greater than 1000 each time. The molecule also showed an Efficacy in assay [5] of 171%. The molecule also returned a concentration for a half-maximal effect (EC50) in assay [7] of 2.1 nM.

For the molecule `CC1=CC(C)(C)Nc2ccc3c(c21)/C(=C/c1ccncc1C)Oc1ccc(F)cc1-3`, the inhibition constant Ki is 232 nM in assay [1], 1.4 nM in assay [2] and greater than 1000 nM in assay [3]. For the same molecule, the Ratio in assay [4] amounted to 511; in assay [6], 255. This molecule also registered an Efficacy in assay [5] of 138%.

For the molecule `CC1=CC(C)(C)Nc2ccc3c(c21)/C(=C/c1ccccc1C)Oc1c(F)cccc1-3`, the inhibitory constant (Ki) in assay [1] came out at 232 nM; in assay [2] it was 1.5 nM; in assay [3], 960 nM. For the same molecule, the Ratio in assay [4] and in assay [6] was greater than 1000 each time. The same molecule returned an Efficacy in assay [5] of 163%. Besides, a half-maximal response in assay [7] (EC50) required 1.4 nM.

As for `CC1=CC(C)(C)Nc2ccc3c(c21)/C(=C/c1ccsc1)Oc1ccc(F)cc1-3`, the inhibition constant Ki in assay [1] turned out to be 84 nM; in assay [2], 1.3 nM; in assay [3] it was 669 nM. The half-inhibitory concentration (IC50) in assay [8] worked out at 215 nM. Further, the Ratio in assay [4] and in assay [6] was greater than 1000 each time. Also, the Efficacy in assay [5] was found to be 174%. The EC50 in assay [7] is 0.71 nM.
